In test [1] the target is T1, SUMO-activating enzyme (Homo sapiens, UniProt Q9UBT2). In words: SUMOylation inhibitor hit validation, confirmation, SUMOylation inhibitor project, biochemical, AlphaScreen (AID 2018). In kind it is functional. For orientation: Bead proximity is the source of the signal in Alpha formats.
Test [2] has as its target T1, SUMO-activating enzyme. In words: inhibitors of in vitro SUMOylation cascade, primary screen, biochemical, HTRF, uHTS (AID 2006). In kind it is protein-complex assay. (In TR-FRET formats the signal depends on donor and acceptor labels being close together.)
A further test concerns the target SUMO E1/E2 (Homo sapiens, UniProt P63279+Q9UBE0+Q9UBT2). The experiment in a line: SAR analysis of SUMOylation using HTRF in an in-Vitro dose response assay. [Related pubchem assays (depositor defined):AID2006, AID2011, AID2018, AID2069, AID2658]. It is filed as functional.
The next test deals with Vero. The experiment in a line: Vero cell cytotoxicity, cytotoxicity control for flavivirus capping enzyme inhibitors (AID 588742). It is filed as functional. Particulars: Chlorocebus sabaeus.
In another test the target is T2, Protein RecA (Mycobacterium tuberculosis, UniProt P9WHJ3).
T2 sequence (P9WHJ3 whole entry): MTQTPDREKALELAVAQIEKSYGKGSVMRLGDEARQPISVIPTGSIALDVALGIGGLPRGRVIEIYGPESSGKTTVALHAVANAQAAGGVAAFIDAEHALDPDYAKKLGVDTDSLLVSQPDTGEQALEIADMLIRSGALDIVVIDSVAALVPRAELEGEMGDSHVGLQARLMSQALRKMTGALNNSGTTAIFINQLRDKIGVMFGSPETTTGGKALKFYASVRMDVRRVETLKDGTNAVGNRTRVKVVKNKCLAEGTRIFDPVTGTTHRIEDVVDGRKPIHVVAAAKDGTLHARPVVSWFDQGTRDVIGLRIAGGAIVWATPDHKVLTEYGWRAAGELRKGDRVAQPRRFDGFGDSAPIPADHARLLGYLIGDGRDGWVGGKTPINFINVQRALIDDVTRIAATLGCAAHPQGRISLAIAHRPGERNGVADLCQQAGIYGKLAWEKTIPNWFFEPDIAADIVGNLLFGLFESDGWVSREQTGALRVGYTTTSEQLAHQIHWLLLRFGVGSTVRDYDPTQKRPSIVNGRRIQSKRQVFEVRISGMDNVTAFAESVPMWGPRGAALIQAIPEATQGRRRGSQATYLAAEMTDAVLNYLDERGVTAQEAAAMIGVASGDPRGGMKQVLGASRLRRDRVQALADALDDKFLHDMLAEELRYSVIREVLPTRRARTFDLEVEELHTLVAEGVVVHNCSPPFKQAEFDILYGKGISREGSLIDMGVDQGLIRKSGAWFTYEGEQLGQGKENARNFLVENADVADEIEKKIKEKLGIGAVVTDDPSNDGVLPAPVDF
The experiment in a line: Fluorescence Cell-Free Homogeneous Dose Retest to Identify Inhibitors of RecA-Intein Splicing Activity. [Related pubchem assays (depositor defined):AID2097, AID2223, AID489010, AID492950]. It is filed as functional.

For the next test, the target named is Genome polyprotein (dengue virus type 2, UniProt P29990). The experiment in a line: Dengue-2 NS5 methyltransferase inhibitors, primary screen, biochemical, confirmation dose response (AID 588689). It is filed as functional.
Test [3] addresses T3, Histone-lysine N-methyltransferase NSD2 (Homo sapiens, UniProt O96028).
T3 sequence (O96028 whole entry): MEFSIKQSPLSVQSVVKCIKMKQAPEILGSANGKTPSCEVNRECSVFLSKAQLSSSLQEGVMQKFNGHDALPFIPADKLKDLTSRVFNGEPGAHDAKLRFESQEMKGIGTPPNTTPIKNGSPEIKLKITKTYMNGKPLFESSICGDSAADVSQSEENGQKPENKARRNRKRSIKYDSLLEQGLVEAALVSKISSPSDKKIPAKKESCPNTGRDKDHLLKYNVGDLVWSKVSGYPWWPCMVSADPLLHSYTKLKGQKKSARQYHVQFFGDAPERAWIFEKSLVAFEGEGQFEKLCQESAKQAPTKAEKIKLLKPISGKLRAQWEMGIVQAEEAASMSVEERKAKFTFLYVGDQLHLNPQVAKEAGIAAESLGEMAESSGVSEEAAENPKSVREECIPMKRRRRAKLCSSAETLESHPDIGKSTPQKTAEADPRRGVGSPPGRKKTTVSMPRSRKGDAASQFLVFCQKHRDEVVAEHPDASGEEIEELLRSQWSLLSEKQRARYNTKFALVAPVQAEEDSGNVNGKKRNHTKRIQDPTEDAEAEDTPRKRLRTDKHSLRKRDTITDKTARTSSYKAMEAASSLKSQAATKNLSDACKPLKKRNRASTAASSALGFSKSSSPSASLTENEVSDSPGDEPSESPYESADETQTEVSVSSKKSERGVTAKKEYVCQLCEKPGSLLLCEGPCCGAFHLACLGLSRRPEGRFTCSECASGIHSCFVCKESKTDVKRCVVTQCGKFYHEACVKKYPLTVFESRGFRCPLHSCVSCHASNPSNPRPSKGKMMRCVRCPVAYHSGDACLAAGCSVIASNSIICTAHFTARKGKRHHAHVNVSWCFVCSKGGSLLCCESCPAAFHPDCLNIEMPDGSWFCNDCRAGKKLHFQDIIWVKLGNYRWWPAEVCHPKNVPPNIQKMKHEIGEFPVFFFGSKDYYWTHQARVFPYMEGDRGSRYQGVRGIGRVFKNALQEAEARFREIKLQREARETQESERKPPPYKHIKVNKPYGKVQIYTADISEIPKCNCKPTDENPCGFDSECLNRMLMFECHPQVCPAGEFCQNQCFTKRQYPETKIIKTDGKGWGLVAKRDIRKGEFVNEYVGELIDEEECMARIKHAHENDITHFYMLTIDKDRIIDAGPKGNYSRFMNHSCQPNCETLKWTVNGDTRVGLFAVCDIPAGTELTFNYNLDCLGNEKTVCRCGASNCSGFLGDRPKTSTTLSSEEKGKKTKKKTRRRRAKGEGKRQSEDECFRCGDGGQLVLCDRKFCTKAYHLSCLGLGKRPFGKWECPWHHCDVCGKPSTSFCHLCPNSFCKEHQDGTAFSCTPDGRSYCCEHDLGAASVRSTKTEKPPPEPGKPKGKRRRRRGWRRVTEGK
It is filed as biochemical.

For another test, the system named is HEK293. In words: cells. It is filed as functional, cell-based. Particulars: Homo sapiens.
Test [4] concerns the target Nuclear receptor subfamily 0 group B member 1 (Homo sapiens, UniProt P51843). The experiment in a line: Luminescence-based cell-based high throughput dose response assay for inhibitors of the orphan nuclear receptor subfamily 0, group B, member 1 (DAX1; NR0B1). [Related pubchem assays (depositor defined):AID504766, AID504790]. In kind it is functional.
The target in test [5] is Glucose-6-phosphate 1-dehydrogenase (Homo sapiens, UniProt P11413). In words: human G6PD enzyme inhibitors, dose response, selectivity assay for P. falciparum G6PD inhibitor project, biochemical, fluorescence (AID 504792). It is filed as functional.
For another test, the target named is Nonstructural protein 1 (Influenza A virus, UniProt Q194T2). It is filed as functional, Influenza A virus (A/California/07/2009(H1N1)).
Test [6] addresses T4, Polyadenylate-binding protein 1 (Homo sapiens, UniProt P11940). In words: PABP1 MLLE–PAM2 interaction inhibitors, dose response, miRNA deadenylation inhibitor project, biochemical, fluorescence polarization, Cy5-PAM2 peptide, secondary (AID 602260). Particulars: read-out: IC50_Mean. In kind it is functional. On the technique in general: Fluorescence polarisation rises when a labelled molecule tumbles more slowly, as on binding a larger partner.

In test [7] the target is T4, Polyadenylate-binding protein 1. In words: PABP1 MLLE–PAM2 binding inhibitor potency, dose response, biochemical, fluorescence polarization, FITC-PAM2 peptide (AID 602259). In kind it is functional. Particulars: read-out: IC50_Mean.
Test [8] deals with T5, Sentrin-specific protease 8 (Homo sapiens, UniProt Q96LD8).
T5 sequence (Q96LD8 whole entry): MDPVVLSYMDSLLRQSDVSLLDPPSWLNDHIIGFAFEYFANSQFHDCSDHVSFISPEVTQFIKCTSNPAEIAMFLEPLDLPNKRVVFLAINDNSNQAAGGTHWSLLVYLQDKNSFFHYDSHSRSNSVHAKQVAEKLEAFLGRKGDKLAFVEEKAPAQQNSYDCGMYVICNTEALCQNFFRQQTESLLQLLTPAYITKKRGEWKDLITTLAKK
In kind it is functional.

The target in test [9] is T5, Sentrin-specific protease 8. In kind it is functional. The source holds these as a separate data set.
The next test deals with Phospholipase D1 (Homo sapiens, UniProt Q13393). In words: PLD1 inhibitor potency in cells, dose response (AID 602151).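 Further: cellular PLD1 assay in Calu-1 cells stimulated with PMA.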 It is filed as functional.
Another test addresses Phospholipase D2 (Homo sapiens, UniProt O14939). In words: PLD2 inhibitor potency in cells, dose response (AID 602147).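 Further: cellular assay in HEK293 cells overexpressing GFP-tagged PLD2.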 It is filed as functional.

Activity calls are given as the source filed them.

Sequence of Nuclear receptor subfamily 0 group B member 1 (P51843 whole entry): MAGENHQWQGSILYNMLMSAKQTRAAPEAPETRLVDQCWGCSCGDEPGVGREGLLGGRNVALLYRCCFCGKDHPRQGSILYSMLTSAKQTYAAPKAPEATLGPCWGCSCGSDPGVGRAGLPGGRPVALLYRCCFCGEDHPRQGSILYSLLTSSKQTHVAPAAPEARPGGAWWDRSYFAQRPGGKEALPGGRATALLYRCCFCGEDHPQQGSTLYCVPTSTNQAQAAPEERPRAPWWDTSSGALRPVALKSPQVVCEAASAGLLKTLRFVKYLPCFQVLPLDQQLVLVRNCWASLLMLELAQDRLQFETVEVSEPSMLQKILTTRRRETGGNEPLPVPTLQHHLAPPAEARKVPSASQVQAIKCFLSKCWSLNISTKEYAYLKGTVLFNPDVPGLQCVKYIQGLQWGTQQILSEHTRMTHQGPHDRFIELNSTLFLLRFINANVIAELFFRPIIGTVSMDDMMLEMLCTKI
Sequence of Phospholipase D1 (Q13393 whole entry): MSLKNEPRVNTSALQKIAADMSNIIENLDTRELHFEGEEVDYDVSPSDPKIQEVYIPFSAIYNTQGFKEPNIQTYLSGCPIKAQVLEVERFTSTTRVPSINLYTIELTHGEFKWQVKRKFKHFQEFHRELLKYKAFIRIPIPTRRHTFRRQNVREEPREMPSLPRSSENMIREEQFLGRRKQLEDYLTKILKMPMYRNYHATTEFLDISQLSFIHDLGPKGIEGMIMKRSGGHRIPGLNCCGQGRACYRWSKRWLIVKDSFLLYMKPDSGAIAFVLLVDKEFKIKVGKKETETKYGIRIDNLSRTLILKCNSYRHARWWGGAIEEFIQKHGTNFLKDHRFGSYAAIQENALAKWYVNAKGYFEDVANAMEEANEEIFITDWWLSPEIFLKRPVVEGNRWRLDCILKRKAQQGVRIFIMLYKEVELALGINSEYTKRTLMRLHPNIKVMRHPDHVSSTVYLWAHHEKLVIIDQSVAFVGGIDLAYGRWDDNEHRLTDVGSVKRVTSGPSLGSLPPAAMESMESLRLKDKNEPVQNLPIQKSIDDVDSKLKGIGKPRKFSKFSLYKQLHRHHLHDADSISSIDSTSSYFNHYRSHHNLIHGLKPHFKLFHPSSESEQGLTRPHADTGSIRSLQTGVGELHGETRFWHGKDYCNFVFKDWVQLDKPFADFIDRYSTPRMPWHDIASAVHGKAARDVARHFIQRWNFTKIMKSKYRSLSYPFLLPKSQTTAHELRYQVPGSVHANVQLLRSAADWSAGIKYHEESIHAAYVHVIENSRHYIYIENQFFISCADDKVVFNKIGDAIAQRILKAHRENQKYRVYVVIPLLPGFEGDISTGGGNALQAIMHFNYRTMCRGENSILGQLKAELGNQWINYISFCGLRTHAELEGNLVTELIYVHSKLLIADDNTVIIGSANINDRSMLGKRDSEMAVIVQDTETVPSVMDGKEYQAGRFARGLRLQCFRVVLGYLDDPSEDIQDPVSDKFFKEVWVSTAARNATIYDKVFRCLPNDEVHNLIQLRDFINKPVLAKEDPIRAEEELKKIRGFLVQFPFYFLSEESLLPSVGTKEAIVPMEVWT
Sequence of Phospholipase D2 (O14939 whole entry): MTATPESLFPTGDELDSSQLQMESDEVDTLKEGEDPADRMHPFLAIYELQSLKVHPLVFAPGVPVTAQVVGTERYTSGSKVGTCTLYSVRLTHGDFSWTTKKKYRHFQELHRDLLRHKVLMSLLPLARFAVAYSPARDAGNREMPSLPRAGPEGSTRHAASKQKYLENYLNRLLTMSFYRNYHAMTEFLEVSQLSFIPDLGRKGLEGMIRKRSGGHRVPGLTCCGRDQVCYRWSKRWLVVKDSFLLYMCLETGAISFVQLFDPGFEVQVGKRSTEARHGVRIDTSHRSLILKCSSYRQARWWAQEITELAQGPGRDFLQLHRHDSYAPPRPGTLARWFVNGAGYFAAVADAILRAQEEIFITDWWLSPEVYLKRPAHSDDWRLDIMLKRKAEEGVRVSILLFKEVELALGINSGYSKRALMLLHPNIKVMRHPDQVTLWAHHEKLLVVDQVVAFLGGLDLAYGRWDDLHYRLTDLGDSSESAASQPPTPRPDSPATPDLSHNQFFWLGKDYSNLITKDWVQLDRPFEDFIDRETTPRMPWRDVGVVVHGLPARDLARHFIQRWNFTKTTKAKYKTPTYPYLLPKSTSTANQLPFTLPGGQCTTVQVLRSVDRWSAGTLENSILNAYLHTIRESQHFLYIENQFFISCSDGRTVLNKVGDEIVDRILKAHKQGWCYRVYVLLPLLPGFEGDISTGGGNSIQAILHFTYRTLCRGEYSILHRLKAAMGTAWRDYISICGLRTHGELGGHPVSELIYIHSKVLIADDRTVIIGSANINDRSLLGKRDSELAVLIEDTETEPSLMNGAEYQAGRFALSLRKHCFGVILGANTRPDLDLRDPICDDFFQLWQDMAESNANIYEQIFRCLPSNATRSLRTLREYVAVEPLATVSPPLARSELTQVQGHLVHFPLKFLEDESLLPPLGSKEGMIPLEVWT
T1 sequence (Q9UBE0 whole entry): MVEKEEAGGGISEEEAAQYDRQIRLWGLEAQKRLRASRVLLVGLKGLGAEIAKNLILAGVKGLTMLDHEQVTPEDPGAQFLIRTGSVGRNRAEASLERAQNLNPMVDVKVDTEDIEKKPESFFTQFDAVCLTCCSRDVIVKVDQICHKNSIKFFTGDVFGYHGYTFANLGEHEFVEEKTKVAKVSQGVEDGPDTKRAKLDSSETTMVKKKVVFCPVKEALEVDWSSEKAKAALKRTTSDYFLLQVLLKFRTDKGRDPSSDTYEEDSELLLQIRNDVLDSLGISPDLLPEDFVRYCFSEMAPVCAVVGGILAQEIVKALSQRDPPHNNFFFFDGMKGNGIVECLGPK
T1 sequence (Q9UBT2 whole entry): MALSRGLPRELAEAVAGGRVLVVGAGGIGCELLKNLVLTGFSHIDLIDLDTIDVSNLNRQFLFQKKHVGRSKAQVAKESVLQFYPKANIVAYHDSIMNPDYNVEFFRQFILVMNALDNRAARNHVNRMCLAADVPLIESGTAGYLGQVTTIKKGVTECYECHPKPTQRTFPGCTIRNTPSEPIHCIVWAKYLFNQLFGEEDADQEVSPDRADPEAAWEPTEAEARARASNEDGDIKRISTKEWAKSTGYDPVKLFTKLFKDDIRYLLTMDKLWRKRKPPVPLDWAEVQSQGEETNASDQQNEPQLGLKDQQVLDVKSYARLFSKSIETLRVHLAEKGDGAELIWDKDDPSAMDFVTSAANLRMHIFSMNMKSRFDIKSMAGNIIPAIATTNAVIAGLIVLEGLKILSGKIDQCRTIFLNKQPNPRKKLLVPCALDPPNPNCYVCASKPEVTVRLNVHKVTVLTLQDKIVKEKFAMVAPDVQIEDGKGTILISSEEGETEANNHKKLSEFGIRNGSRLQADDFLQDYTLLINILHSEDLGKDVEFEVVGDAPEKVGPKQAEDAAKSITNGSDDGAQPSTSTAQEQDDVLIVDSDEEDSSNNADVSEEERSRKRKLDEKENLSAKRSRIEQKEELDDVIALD
T4 sequence (P11940 whole entry): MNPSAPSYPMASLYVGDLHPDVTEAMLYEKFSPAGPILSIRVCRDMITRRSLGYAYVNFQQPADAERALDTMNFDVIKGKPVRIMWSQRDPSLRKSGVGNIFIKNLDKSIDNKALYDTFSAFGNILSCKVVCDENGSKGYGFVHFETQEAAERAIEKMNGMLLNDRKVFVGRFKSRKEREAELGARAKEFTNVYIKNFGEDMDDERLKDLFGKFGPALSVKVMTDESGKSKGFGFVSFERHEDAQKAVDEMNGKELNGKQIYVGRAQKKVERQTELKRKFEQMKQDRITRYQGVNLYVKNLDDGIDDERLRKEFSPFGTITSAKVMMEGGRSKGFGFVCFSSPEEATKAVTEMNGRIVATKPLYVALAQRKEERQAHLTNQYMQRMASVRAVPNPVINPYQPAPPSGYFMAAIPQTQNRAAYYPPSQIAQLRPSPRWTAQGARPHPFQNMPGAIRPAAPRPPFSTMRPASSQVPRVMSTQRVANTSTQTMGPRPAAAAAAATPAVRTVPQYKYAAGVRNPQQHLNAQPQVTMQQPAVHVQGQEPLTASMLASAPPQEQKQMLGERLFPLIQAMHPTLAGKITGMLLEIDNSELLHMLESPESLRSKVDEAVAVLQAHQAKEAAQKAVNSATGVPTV
Sequence of Nonstructural protein 1 (Q194T2 whole entry): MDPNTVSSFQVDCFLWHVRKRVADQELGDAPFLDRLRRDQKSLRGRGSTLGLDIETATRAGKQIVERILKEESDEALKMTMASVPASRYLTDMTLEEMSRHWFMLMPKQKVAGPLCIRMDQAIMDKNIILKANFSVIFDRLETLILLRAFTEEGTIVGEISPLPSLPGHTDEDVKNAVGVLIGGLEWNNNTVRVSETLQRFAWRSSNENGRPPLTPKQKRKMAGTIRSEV
Sequence of SUMO E1/E2 (Q9UBE0 whole entry): as the sequence (Q9UBE0 whole entry) above
Sequence of SUMO E1/E2 (Q9UBT2 whole entry): as the sequence (Q9UBT2 whole entry) above
Sequence of SUMO E1/E2 (P63279 whole entry): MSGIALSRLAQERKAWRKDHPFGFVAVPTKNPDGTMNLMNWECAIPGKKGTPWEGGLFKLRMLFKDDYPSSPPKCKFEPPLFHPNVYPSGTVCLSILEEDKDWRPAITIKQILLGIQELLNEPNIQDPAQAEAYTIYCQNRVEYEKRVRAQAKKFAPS

A word on the CC50: it is the concentration giving 50% cytotoxicity. A word on the EC50: it is the midpoint of the concentration-response curve. By AC50 is commonly meant the concentration giving half of the maximal activity seen. On to `CCCCn1c(NC(=O)c2ccc(Br)o2)c(S(=O)(=O)c2ccccc2)c2nc3ccccc3nc21`, for which the IC50 on SUMO-activating enzyme [1] is 2.8 µM (active); on SUMO-activating enzyme [2], 10.6 µM (active); at SUMO E1/E2 it was 20.3 µM (active); at Genome polyprotein, 75.4 µM (active). The CC50 with Vero was > 40 µM (active). Further, the EC50 on Protein RecA was 108 µM (inconclusive). The AC50 in test [3] is 7.79 µM (active).
As to `CCCCN(C(C)=O)C1CC(=O)N(c2ccc(OCCC)cc2)C1=O` (configuration not stated), the IC50 (with HEK293; in test [4]) was > 67.5 µM (inactive) each time.
In the case of `Cc1cnc(C=NNC(N)=S)c2cccc(N)c12`, the IC50 was 32.1 µM (inactive) in test [5]; 2.39 µM (active) on Nonstructural protein 1; > 66 µM (inactive) in [6]; > 66 µM (inactive) in [7]; 8.74 µM (active) in test [8]; 2.83 µM (active) in test [9]. Also, the half-maximal cytotoxic concentration (CC50) with Vero was 4.93 µM (active).
`O=C(NCCN1CCC2(CC1)C(=O)NCN2c1ccccc1)c1cc2cc(F)ccc2[nH]1`: the figures for the IC50 on Phospholipase D1 and at Phospholipase D2 were 100 nM (active) and 70 nM (active), respectively.
For `C[C@@H](CN1CCC(n2c(=O)[nH]c3cc(Br)ccc32)CC1)NC(=O)c1ccc(F)cc1` the same measures were 4 nM (active) and 340 nM (active).
For `N#C/C(=N/Nc1ccc([N+](=O)[O-])cc1)C(=N)N1CCCCC1`, the IC50 (with HEK293; in [4]) was > 67.5 µM (inactive) throughout.

The values are drawn from ChEMBL document CHEMBL1201862, “PubChem BioAssay data set” (2004).
